# Data: patent US12491217B2, “Compositions and methods for promoting healthy neural development in an unborn baby” (The Regents of the University of California, priority 2019, dated 2025)
# Counter-ions that a name gives are not always drawn.
# System: thalamic explants from E14.5 embryos of ABX-treated dams
# Assay: Axon outgrowth assay with individual metabolite supplementation
# Assay type: cell-based, C57Bl/6J mice
# Details: for Length of ABX thalamic axons proximal to hypothalamus / Number of ABX thalamic axons proximal to hypothalamus: ABX thalamic + ABX hypothalamic explant; for Length of ABX thalamic axons proximal to hypothalamus / Number of ABX thalamic axons proximal to hypothalamus / Length of axons proximal to striatal explant: 1 nM, 100 nM, 10 uM; for Length of axons proximal to striatal explant / Number of axons per 200 μm of thalamic perimeter proximal to striatal explant: ABX thalamic + ABX striatal explant, 48 hrs; for Number of axons per 200 μm of thalamic perimeter proximal to striatal explant: physiologically-relevant concentrations (1 nM, 100 nM, 10 uM)
# Description: Dams were sacrificed on E14.5 by cervical dislocation to preclude confounding effects of CO2 on maternal and fetal physiology. Thalamic, striatal, and hypothalamic explants were isolated from E14.5 embryonic brains and transferred to ice-cold HBSS (Invitrogen). Explants were sliced to ˜500 μm and placed on a thin layer of 50 μl BD Matrigel (Beckton Dickinson) on a 15 mm coverslip. Each coverslip contained a thalamic explant at the center and a striatal and hypothalamic explant on each side, at 1 mm equidistant from the thalamic explant. Explants were incubated in warmed neurobasal complete media containing 1× neurobasal medium (Thermofisher Scientific), 1× GlutaMax (Thermofisher Scientific), and 2% B-27 (Thermofisher Scientific) for 48 hrs at 37° C., and fed with fresh media every 24 hrs. After 48 hrs, media was gently aspirated and replaced with 4% PFA for 1 hr and processed for immunofluorescence staining with 1:500 (3 tubulin III anti-mouse antibody (EMD Millipore MAB1637). Axons were imaged using a Leica DMi8 epifluorescence microscope and quantified using Fiji software^78. Axon numbers were quantified per 200 μm of thalamus at a distance of 200 μm from the thalamus. Length of axons was quantified by averaging length of the 10 longest axons proximal to striatum or hypothalamus. Data for number and length of axons in the explant co-culture system was normalized by subtraction of data from monoculture of thalamic explants from the corresponding experimental group.
# Thalamic, striatal, and hypothalamic explants from ABX-treated dams were harvested and cultured as described in the “axon outgrowth assay” section above. For metabolite treatment, BD Matrigel was supplemented with […], 100 nM, or 1 nM of trimethylamine-N-oxide (TMAO), 5-aminovalerate (5-AV), imidazole propionate (IP), 3-indoxyl-sulfate (3-IS), or hippurate (llip)^48,79-81. 5-aminovalerate is a precursor to N,N,N-trimethyl-5-aminovalerate (TMAV), which is not commercially available, and both are implicated in carnitine metabolism^82,83. Metabolite concentrations were determined as physiologically relevant, based on reported concentrations detected in blood and/or cerebrum from the mouse multiple tissue metabolomic database (MMIvIDB), human metabolome database (HMDB) and existing literature^48,79-81. Axons were stained, imaged and analyzed as described in the “axon outgrowth assay” section above.
Structure (SMILES),Length of ABX thalamic axons proximal to hypothalamus,Number of ABX thalamic axons proximal to hypothalamus,Length of axons proximal to striatal explant,Number of axons per 200 μm of thalamic perimeter proximal to striatal explant
"C[N+](C)(C)[O-] [TMAO, trimethylamine-N-oxide]",No statistically significant changes,No statistically significant changes,"modest, but not statistically significant, increases in axon length",significantly increased axon number to levels seen in fetal brain explants from embryos of SPF dams
"NCCCCC(=O)O [5-AV, 5-aminovalerate]",No statistically significant changes,No statistically significant changes,significantly increased axon length,significantly increased axon number to levels seen in fetal brain explants from embryos of SPF dams
"O=C(O)CNC(=O)c1ccccc1 [HIP, hippurate]",No statistically significant changes,No statistically significant changes,no effect,significantly increased axon number to levels seen in fetal brain explants from embryos of SPF dams
"O=C(O)CCc1cnc[nH]1 [IP, imidazole propionate]",No statistically significant changes,No statistically significant changes,significantly increased axon length,significantly increased axon number to levels seen in fetal brain explants from embryos of SPF dams
"O=S(=O)(O)Oc1c[nH]c2ccccc12 [3-IS, 3-indoxyl sulfate]",No statistically significant changes,No statistically significant changes,"modest, but not statistically significant, increases in axon length","but not 3-IS, significantly increased axon number"
